Laboratory results: article PMC12203862, “BroadAMP-GPT: AI-Driven generation of broad-spectrum antimicrobial peptides for combating multidrug-resistant ESKAPE pathogens” (Gut Microbes, 2025)
≈ marks a conversion by molar mass, not a printed value. Residues, ends and D or L forms follow the SMILES beside them.

Key:
[1] = test system: S. aureus ATCC 29213; assay: microbe, parasite or virus in culture; type: cell-based; conditions: ATCC 29213
[2] = test system: A. baumannii 7979; assay: microbe, parasite or virus in culture; type: cell-based; conditions: 7979
Description: (§1) Bacterial strains and growth conditions: All Gram-negative and Gram-positive bacterial strains (Supplementary Table S8) were cultured in Luria-Bertani (LB) or trypticase soy broth (TSB) agar plates, respectively, and incubated overnight at 37 °C unless specifically indicated. A single colony of the tested bacterial strains was inoculated into medium broth with shaking at 220 rpm for further experiments.
(§2) Minimal inhibitory concentrations: Antimicrobial susceptibility testing was performed by broth microdilution method for AMPs against Gram-positive and Gram-negative pathogens above mentioned, following the methods of document CLSI M100-ED34.[43] The MICs were defined as the lowest concentrations that inhibit visible growth of the tested bacteria. E. coli ATCC 25,922 and S. aureus ATCC 29,213 were served as quality controls.

[3] = test system: A. baumannii AB11; assay: microbe, parasite or virus in culture; type: cell-based; conditions: AB11
Description: as §1, §2

[4] = test system: E. coli ATCC 25922; assay: microbe, parasite or virus in culture; type: cell-based; conditions: ATCC 25922
Description: as §1, §2

[5] = test system: E. faecalis ES01; assay: microbe, parasite or virus in culture; type: cell-based; conditions: ES01
Description: as §1, §2

[6] = test system: E. faecalis J2; assay: microbe, parasite or virus in culture; type: cell-based; conditions: J2
Description: as §1, §2

[7] = test system: E. faecalis JH2-2; assay: microbe, parasite or virus in culture; type: cell-based; conditions: JH2-2
Description: as §1, §2

[8] = test system: E. faecium HFY01; assay: microbe, parasite or virus in culture; type: cell-based; conditions: HFY01
Description: as §1, §2

[9] = test system: E. faecium MC38; assay: microbe, parasite or virus in culture; type: cell-based; conditions: MC38
Description: as §1, §2

[10] = test system: E. faecium QF31; assay: microbe, parasite or virus in culture; type: cell-based; conditions: QF31
Description: as §1, §2

[11] = test system: K. pneumoniae 9-1; assay: microbe, parasite or virus in culture; type: cell-based; conditions: 9-1
Description: as §1, §2

[12] = test system: P. aeruginosa PA14; assay: microbe, parasite or virus in culture; type: cell-based; conditions: PA14
Description: as §1, §2

[13] = test system: S. agalactiae DL03; assay: microbe, parasite or virus in culture; type: cell-based; conditions: DL03
Description: as §1, §2

[14] = test system: S. aureus M147-2; assay: microbe, parasite or virus in culture; type: cell-based; conditions: M147-2
Description: as §1, §2

[15] = test system: S. aureus M92-1; assay: microbe, parasite or virus in culture; type: cell-based; conditions: M92-1
Description: as §1, §2

[16] = test system: S. aureus YZSA-15; assay: microbe, parasite or virus in culture; type: cell-based; conditions: YZSA-15
Description: as §1, §2

[17] = test system: S. aureus YZSA-21; assay: microbe, parasite or virus in culture; type: cell-based; conditions: YZSA-21
Description: as §1, §2

[18] = test system: S. aureus YZSA-24; assay: microbe, parasite or virus in culture; type: cell-based; conditions: YZSA-24
Description: as §1, §2

[19] = test system: S. pyogenes DL02; assay: microbe, parasite or virus in culture; type: cell-based; conditions: DL02
Description: as §1, §2

[20] = test system: S. suis SH0918; assay: microbe, parasite or virus in culture; type: cell-based
Description: as §1, §2

[21] = test system: S. suis P1/7; assay: microbe, parasite or virus in culture
Description: as §1
as §2, with “bacteria.” for “bacteria. E. coli ATCC 25,922 and S. aureus ATCC 29,213 were served as quality controls.”

[22] = test system: S. enteritis S1; assay: organism not typed; type: cell-based
Description: as §1, §2

[23] = test system: S. aureus clinical isolates (n = 40); type: cell-based
Description: as §1, §2

[24] = test system: four Gram-positive and five Gram-negative bacteria, including ESKAPE pathogens; type: cell-based
Description: as §1, §2

[25] = test system: Caco-2; assay: Cytotoxicity, CCK-8; type: cell-based, human
Description: (§3) The cytotoxicity of selected AMPs to human laryngeal carcinoma epithelial cell (HEp-2) and colorectal adenocarcinoma cell (Caco-2) lines was evaluated using the CCK-8 method as previously described.[55] The cells were cultured in high-glucose dulbecco’s modified eagle medium (DMEM) supplemented with 10% fetal bovine serum (FBS) and 1% penicillin-streptomycin. Cells were inoculated in 96-well sterile microtiter plate at 5000 cells/100 μL. After cultured (37℃, 5%CO2) for 24 h, cells were treated with AMPs at concentrations ranging from 8 to 128 μg/mL for another 48 h. Afterward, the culture medium was replaced by fresh DMEM medium containing 10% CCK-8 and incubated for 1 h. The absorbance of the solution was measured at 450 nm by a microplate reader. Cell viability was calculated as: % cell viability = [(Abssample - Absblank)/(Absnegative - Absblank)]×100%. Each experiment was carried out with three replicates.

[26] = test system: HEp-2; assay: Cytotoxicity, CCK-8; type: cell-based, human
Description: as §3

[27] = test system: mouse red blood cells; assay: Haemolysis assay; type: cell-based; conditions: MIC values against S. aureus ATCC 29213
Description: Red blood cells (RBCs) from Kunming mice were used to evaluate the hemolytic toxicity of the selected AMPs. Fresh red blood cells were collected from mice and washed until the supernatant was completely cleared. Added 19-fold volume of PBS to prepare 2% RBC suspension. […] Afterward, the mixture was centrifuged at 1500 rpm for 10 min. Then transferred 30 µL supernatant to 96-well plate containing 70 µL PBS. The absorbance of the sample was measured at 450 nm by a microplate reader. PBS and 2% Triton X-100 was used as negative and positive control, respectively. The experiment was performed in triplicate and the hemolysis activity was calculated by the formula hemolysis = [(Absorbancesample- AbsorbancePBS)/(AbsorbanceTriton x-100-AbsorbancePBS)]×100%.

In the case of CC(C)C[C@H](NC(=O)[C@H](CCCCN)NC(=O)[C@H](Cc1c[nH]c2ccccc12)NC(=O)[C@H](CC(C)C)NC(=O)[C@H](CC(C)C)NC(=O)[C@H](CCCCN)NC(=O)[C@H](Cc1c[nH]c2ccccc12)NC(=O)[C@H](Cc1c[nH]c2ccccc12)NC(=O)[C@H](CCCCN)NC(=O)[C@H](CCCCN)NC(=O)[C@H](C)N)C(=O)N[C@@H](Cc1c[nH]c2ccccc12)C(=O)N[C@@H](CCCCN)C(=O)N[C@@H](CCCCN)C(=O)N[C@@H](C)C(=O)N[C@@H](CCCCN)C(=O)O [AMP_S4] (H-AKKWWKLLWKLWKKAK-OH), the MIC [1] is reported as 4 µg/mL (≈ 1.87 µM), the MIC [2] is reported as 4 µg/mL (≈ 1.87 µM) and the MIC [3] is reported as 2 µg/mL (≈ 0.934 µM). For the same molecule, the MIC [4] was 8 µg/mL (≈ 3.74 µM), the MIC [5] was 4 µg/mL (≈ 1.87 µM) and the MIC [6] was 8 µg/mL (≈ 3.74 µM). For the same molecule, the MIC [7] was 8 µg/mL (≈ 3.74 µM), the MIC [8] was 4 µg/mL (≈ 1.87 µM) and the MIC [9] was 4 µg/mL (≈ 1.87 µM). It also gave an MIC [10] of 4 µg/mL (≈ 1.87 µM), an MIC [11] of 16 µg/mL (≈ 7.47 µM) and an MIC [12] of 8 µg/mL (≈ 3.74 µM). For the same molecule, the MIC [13] was 4 µg/mL (≈ 1.87 µM), the MIC [14] was 4 µg/mL (≈ 1.87 µM) and the MIC [15] was 4 µg/mL (≈ 1.87 µM). It also gave an MIC [16] of 4 µg/mL (≈ 1.87 µM), an MIC [17] of 4 µg/mL (≈ 1.87 µM) and an MIC [18] of 16 µg/mL (≈ 7.47 µM). For the same molecule, the MIC [19] was 4 µg/mL (≈ 1.87 µM), the MIC [20] was 4 µg/mL (≈ 1.87 µM) and the MIC [21] was 4 µg/mL (≈ 1.87 µM). For the same molecule, the MIC [22] was 16 µg/mL (≈ 7.47 µM), the “MICs, range over clinical isolates” value [23] was 4 to 32 µg/mL and the “MIC values, range” value [24] was 2 to 16 µg/mL. The “MICs, range over panel” value [24] was 2 to 16 µg/mL, the CC50 ([25]; 48 h) was 15.82 µg/mL (≈ 7.39 µM) and the CC50/MIC ([25]; Caco-2, MIC values against S. aureus ATCC 29213) was 3.96. The CC50 ([26]; 48 h) was 35.16 µg/mL (≈ 16.4 µM), the CC50/MIC ([26]; HEp-2, MIC values against S. aureus ATCC 29213) was 8.8 and the HC50/MIC [27] was 4.56.
